Reference: ChEMBL document CHEMBL5465560, “Selectivity Literature for EUbOPEN Chemogenomic Library” (2024)

Key:
[1] = target: T1, Ephrin type-B receptor 3 (Homo sapiens) (UniProt P54753); conditions: at 10 µM
T1 sequence (whole entry): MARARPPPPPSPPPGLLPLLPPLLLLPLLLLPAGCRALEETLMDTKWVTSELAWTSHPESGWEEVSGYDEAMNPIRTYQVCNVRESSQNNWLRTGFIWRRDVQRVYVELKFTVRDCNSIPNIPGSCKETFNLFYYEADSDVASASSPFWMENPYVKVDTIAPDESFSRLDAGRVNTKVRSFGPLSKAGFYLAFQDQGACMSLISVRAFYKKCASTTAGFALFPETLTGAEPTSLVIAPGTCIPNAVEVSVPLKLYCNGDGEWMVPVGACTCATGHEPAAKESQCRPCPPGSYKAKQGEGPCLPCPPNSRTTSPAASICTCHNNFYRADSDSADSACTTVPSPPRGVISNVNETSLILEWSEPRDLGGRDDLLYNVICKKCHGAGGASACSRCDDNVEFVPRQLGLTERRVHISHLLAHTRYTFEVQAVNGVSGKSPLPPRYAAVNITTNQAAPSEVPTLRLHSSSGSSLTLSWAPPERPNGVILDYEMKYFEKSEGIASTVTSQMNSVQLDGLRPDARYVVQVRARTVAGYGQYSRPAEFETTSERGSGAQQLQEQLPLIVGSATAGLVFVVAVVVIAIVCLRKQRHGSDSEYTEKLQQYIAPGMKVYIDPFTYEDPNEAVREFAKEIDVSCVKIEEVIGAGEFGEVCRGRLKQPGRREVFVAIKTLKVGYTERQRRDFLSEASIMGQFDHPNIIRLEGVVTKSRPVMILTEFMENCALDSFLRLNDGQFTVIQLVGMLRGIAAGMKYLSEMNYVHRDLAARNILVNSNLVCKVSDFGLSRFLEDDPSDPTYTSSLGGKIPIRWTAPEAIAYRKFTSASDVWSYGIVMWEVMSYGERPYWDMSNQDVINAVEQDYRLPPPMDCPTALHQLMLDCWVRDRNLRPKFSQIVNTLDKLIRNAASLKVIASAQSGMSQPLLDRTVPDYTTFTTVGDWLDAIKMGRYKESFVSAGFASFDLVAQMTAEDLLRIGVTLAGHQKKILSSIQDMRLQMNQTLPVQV

[2] = target: Cyclin-dependent kinase 3 (Homo sapiens) (UniProt Q00526); conditions: at 10 µM
Chain of Cyclin-dependent kinase 3 (Homo sapiens) (Q00526 whole entry, looked up): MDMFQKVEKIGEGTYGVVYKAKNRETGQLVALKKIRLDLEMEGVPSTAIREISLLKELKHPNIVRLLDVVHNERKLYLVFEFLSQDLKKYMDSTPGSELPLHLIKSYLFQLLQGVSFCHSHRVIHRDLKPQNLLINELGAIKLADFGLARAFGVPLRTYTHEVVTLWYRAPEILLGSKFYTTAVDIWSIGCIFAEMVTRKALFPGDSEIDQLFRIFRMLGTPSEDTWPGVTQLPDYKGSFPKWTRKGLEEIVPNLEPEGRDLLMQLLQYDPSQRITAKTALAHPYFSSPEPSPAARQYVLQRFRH

[3] = target: T2, Homeodomain-interacting protein kinase 4 (Homo sapiens) (UniProt Q8NE63); conditions: at 10 µM
T2 sequence (whole entry): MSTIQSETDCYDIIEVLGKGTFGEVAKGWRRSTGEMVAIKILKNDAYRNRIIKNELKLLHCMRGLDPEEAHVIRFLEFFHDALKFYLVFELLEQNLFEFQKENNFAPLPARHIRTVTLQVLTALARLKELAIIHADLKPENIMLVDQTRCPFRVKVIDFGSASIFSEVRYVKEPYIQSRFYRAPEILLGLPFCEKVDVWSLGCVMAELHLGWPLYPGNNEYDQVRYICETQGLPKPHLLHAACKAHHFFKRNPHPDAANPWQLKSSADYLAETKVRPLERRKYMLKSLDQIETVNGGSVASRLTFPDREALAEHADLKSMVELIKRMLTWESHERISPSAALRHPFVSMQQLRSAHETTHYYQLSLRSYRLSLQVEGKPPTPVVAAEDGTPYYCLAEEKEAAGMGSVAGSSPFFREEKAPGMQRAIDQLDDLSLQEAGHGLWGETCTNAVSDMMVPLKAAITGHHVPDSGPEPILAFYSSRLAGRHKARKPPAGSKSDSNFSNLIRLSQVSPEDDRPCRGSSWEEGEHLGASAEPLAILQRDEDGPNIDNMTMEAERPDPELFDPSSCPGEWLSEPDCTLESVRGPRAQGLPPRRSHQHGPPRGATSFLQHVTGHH

[4] = target: Insulin-like growth factor 1 receptor (Homo sapiens, UniProt P08069); assay: Selectivity interaction (Kinase panel (Z-LYTE Assay)) EUB0001632a IGF1R; conditions: at 10 µM
Chain of Insulin-like growth factor 1 receptor (P08069 31-736 limits assumed): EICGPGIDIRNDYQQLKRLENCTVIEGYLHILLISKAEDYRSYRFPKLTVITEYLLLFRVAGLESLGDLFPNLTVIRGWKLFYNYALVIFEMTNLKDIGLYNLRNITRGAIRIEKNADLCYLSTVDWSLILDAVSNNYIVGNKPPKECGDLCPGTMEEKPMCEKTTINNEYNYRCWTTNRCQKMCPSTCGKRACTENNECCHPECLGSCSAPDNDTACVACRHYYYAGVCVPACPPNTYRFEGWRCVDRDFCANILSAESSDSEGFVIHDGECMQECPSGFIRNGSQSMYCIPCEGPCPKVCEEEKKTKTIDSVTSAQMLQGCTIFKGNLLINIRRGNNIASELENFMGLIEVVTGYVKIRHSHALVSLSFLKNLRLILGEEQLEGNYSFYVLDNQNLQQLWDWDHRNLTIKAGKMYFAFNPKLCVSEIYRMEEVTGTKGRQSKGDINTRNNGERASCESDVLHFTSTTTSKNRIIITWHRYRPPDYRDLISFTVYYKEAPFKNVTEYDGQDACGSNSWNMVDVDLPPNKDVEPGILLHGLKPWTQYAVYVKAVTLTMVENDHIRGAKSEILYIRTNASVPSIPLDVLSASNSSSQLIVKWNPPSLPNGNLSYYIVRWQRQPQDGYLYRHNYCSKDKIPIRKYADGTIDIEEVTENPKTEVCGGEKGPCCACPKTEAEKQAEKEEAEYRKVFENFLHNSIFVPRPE
Chain of Insulin-like growth factor 1 receptor (P08069 741-1367 limits assumed): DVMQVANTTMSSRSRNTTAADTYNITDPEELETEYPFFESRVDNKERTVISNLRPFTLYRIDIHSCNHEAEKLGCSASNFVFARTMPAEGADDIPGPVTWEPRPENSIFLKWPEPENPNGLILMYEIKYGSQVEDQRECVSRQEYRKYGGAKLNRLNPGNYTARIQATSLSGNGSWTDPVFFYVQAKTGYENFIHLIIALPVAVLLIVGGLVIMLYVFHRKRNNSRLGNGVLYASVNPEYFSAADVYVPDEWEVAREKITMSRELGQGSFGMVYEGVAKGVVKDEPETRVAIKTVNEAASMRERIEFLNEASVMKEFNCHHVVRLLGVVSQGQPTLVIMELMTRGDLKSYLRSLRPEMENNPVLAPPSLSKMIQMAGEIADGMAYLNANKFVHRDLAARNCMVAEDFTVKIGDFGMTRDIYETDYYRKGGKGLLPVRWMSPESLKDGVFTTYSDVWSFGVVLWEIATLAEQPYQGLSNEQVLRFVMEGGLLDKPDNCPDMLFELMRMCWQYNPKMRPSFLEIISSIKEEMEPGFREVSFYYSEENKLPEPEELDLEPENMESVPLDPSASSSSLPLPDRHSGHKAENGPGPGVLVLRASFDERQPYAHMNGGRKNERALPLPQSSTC

[5] = target: T3, Ephrin type-A receptor 3 (Homo sapiens) (UniProt P29320); assay: Selectivity interaction (KinomeScan (DiscoverX)) EUB0000607a EPHA3; conditions: at 10 µM
T3 sequence (whole entry): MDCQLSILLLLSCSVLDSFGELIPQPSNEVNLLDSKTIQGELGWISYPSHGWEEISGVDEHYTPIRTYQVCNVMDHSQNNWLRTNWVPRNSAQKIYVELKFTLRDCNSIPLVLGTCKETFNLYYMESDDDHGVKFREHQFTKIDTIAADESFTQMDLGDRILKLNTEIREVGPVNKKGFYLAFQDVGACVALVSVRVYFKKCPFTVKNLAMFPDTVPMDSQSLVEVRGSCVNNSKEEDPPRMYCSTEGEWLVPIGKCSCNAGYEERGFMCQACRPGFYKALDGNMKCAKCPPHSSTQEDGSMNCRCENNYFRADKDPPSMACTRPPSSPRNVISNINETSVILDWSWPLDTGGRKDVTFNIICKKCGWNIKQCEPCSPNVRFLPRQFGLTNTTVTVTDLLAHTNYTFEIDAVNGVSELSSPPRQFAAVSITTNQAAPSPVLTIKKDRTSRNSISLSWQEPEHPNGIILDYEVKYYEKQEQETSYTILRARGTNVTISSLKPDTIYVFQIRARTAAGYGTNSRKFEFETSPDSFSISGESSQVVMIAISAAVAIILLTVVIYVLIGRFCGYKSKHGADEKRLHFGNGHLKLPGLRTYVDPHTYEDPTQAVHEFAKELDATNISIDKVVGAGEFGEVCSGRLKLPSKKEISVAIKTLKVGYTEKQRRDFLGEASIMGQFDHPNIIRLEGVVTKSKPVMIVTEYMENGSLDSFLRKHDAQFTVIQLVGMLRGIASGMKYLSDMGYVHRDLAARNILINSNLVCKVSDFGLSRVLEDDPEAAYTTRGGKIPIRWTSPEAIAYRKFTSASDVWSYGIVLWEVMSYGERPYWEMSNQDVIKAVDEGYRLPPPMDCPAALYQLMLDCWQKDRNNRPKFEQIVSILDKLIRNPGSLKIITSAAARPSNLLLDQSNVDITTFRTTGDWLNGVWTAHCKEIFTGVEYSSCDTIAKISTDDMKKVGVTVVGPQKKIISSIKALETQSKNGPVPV

[6] = target: Ribosomal protein S6 kinase alpha-5 (Homo sapiens) (UniProt O75582); assay: Selectivity interaction (Ambit KINOMEscan and KiNATiv profiling in Jurkat cells) EUB0000090b RPS6KA5; assay type: cell-based; conditions: at 1 µM
Chain of Ribosomal protein S6 kinase alpha-5 (Homo sapiens) (O75582 whole entry, looked up): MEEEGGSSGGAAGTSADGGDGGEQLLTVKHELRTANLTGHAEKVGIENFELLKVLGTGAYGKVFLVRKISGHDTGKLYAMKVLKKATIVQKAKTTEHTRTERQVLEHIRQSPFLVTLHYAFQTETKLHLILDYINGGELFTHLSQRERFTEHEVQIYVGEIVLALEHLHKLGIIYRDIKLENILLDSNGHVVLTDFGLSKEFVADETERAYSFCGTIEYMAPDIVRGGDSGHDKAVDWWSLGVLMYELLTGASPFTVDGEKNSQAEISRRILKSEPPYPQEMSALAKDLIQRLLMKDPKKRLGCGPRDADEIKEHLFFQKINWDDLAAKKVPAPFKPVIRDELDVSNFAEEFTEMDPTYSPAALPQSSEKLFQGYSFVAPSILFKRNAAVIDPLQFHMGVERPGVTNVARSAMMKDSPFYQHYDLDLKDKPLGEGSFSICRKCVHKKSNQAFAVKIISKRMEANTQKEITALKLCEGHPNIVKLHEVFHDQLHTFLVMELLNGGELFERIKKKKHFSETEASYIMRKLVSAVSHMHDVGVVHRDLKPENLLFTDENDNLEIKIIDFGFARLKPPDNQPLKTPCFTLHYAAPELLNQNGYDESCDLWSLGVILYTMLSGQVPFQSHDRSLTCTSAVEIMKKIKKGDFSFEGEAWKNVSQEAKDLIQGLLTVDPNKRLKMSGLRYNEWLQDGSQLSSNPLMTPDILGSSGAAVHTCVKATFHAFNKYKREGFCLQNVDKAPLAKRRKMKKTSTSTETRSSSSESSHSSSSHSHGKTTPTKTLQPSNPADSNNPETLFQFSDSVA

[7] = target: Rho-associated protein kinase 2 (Homo sapiens, UniProt O75116); assay: Selectivity interaction (Kinase screening (Upstate/Millipore)) EUB0000604a ROCK2
Chain of Rho-associated protein kinase 2 (O75116 whole entry, looked up): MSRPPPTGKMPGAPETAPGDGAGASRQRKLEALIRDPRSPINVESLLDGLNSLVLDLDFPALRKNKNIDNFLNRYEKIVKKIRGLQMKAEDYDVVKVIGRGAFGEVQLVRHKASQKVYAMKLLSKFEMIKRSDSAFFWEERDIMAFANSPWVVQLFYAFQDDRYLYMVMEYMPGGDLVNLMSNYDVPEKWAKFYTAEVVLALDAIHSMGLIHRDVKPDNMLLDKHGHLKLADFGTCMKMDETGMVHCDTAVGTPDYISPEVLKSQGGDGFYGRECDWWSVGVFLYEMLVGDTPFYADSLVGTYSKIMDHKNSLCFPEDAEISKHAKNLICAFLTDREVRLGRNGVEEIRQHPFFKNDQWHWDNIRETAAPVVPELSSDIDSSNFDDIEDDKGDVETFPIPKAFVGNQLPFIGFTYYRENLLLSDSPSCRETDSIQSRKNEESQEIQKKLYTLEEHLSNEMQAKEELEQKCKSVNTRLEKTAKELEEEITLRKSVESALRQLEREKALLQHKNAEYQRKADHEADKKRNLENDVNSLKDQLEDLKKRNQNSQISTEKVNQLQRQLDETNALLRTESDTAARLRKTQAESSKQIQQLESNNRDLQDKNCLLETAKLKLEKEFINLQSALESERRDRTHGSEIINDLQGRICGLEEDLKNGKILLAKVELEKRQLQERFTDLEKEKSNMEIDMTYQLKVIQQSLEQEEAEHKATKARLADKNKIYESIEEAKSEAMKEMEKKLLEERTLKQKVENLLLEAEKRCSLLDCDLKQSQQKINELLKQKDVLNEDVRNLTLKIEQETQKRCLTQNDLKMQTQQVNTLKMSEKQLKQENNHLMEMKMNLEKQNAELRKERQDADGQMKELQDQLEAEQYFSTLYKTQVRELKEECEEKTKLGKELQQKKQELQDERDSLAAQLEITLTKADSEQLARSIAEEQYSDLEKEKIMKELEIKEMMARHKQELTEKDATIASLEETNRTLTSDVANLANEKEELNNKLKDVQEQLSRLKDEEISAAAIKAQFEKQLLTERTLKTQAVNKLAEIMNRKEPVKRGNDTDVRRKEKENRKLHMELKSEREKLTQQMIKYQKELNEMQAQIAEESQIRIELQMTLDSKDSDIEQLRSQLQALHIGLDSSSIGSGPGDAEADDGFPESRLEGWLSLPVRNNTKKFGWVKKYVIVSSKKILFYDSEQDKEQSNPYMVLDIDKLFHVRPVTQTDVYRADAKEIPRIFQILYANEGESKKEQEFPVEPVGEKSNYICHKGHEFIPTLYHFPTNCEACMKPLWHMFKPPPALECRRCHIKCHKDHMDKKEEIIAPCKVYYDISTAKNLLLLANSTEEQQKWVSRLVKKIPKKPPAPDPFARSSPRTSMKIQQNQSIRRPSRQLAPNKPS

For `CCN(CC)CCCCNc1ncc2cc(-c3cc(OC)cc(OC)c3)c(NC(=O)NC(C)(C)C)nc2n1`, the % of control [1] was 100% and the % of control [2] was 100%.
In the case of `Cc1cc([C@@H](C)Nc2ccccc2C(=O)O)c2nc(N3CCOCC3)cc(=O)n2c1` [AZD-6482], the % of control [3] is reported as 100%.
`Cn1cc(-n2cnc3c(NCc4nc5cc(Cl)c(Cl)cc5[nH]4)nc(N4CCOCC4)nc32)cn1` showed a % of control [4] of 3.73%.
`CNC(=O)Nc1ccc(-c2nc(N3CC4CCC(C3)O4)c3cnn(C4CCC5(CC4)OCCO5)c3n2)cc1` showed a % of control [5] of 100%.
In the case of `CN(C)C/C=C/C(=O)Nc1ccc(C(=O)N2CCCC(Nc3ncc(Cl)c(-c4c[nH]c5ccccc45)n3)C2)cc1` (configuration not stated), the % of control [6] is reported as 86%.
For `Cc1cnc(Nc2ccc(F)cc2Cl)nc1-c1c[nH]c(C(=O)N[C@H](CO)c2cccc(Cl)c2)c1`, the % of inhibition [7] was 57%.
